System: 422866-222-R5-J1-PDC spheroids with HUVEC/MSC, viability
Experiment: Anticancer human tumor 422866-222-R5-J1-PDC patient-derived pancreatic adenocarcinoma cell line growth inhibition [GQUAD]
Conditions: for IC50: curve of first compound; for viability, T/C: stronger effect = lower value
In short: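 Tumor cells were grown as complex spheroids with HUVEC endothelial cells and mesenchymal stem cells as stroma. G-quadruplex stabilizers were combined with targeted agents over half-log dilutions from near the clinical Cmax, or from 10 microM.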

[1] = second compound 0.0316 µM, first compound 0.0316 µM
[2] = second compound 0.0316 µM, first compound 0.1 µM
[3] = second compound 0.0316 µM, first compound 0.316 µM
[4] = second compound 0.0316 µM, first compound 1 µM
[5] = second compound 0.0316 µM, first compound 3.16 µM
[6] = second compound 0.0316 µM, first compound 10 µM
[7] = second compound 0.1 µM, first compound 0.0316 µM
[8] = second compound 0.1 µM, first compound 0.1 µM
[9] = second compound 0.1 µM, first compound 0.316 µM
[10] = second compound 0.1 µM, first compound 1 µM
[11] = second compound 0.1 µM, first compound 3.16 µM
[12] = second compound 0.1 µM, first compound 10 µM
[13] = second compound 0.316 µM, first compound 0.0316 µM
[14] = second compound 0.316 µM, first compound 0.1 µM
[15] = second compound 0.316 µM, first compound 0.316 µM
[16] = second compound 0.316 µM, first compound 1 µM
[17] = second compound 0.316 µM, first compound 3.16 µM
[18] = second compound 0.316 µM, first compound 10 µM
[19] = second compound 1 µM, first compound 0.0316 µM
[20] = second compound 1 µM, first compound 0.1 µM
[21] = second compound 1 µM, first compound 0.316 µM
[22] = second compound 1 µM, first compound 1 µM
[23] = second compound 1 µM, first compound 3.16 µM
[24] = second compound 1 µM, first compound 10 µM
[25] = second compound 3.16 µM, first compound 0.0316 µM
[26] = second compound 3.16 µM, first compound 0.1 µM
[27] = second compound 3.16 µM, first compound 0.316 µM
[28] = second compound 3.16 µM, first compound 1 µM
[29] = second compound 3.16 µM, first compound 3.16 µM
[30] = second compound 3.16 µM, first compound 10 µM
[31] = second compound 10 µM, first compound 0.0316 µM
[32] = second compound 10 µM, first compound 0.1 µM
[33] = second compound 10 µM, first compound 0.316 µM
[34] = second compound 10 µM, first compound 1 µM
[35] = second compound 10 µM, first compound 3.16 µM
[36] = second compound 10 µM, first compound 10 µM
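Note: spheroids exposed to compounds for seven days before reading.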
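Throughout, for viability, T/C: percent viability relative to DMSO vehicle control taken as 100%.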

Compound: Nc1ccn(C2OC(CO)C(O)C2(F)F)c(=O)n1 (stereo not drawn) + Cc1[nH]c2ccc(F)cc2c1-c1nc2c3cccnc3c3ncccc3c2[nH]1
- IC50 (second compound 0.0316 µM): 800 nM
- IC50 (second compound 0.1 µM): 427 nM
- IC50 (second compound 0.316 µM): 1200 nM
- IC50 (second compound 1 µM): 504 nM
- IC50 (second compound 3.16 µM): 347 nM
- IC50 (second compound 10 µM): 490 nM
- viability, T/C [1]: 85.1%
- viability, T/C [2]: 75.8%
- viability, T/C [3]: 63.3%
- viability, T/C [4]: 46%
- viability, T/C [5]: 41.1%
- viability, T/C [6]: 41.8%
- viability, T/C [7]: 83.8%
- viability, T/C [8]: 82.2%
- viability, T/C [9]: 52.5%
- viability, T/C [10]: 42.2%
- viability, T/C [11]: 43.7%
- viability, T/C [12]: 42.5%
- viability, T/C [13]: 97.8%
- viability, T/C [14]: 80.9%
- viability, T/C [15]: 67.8%
- viability, T/C [16]: 49.9%
- viability, T/C [17]: 42%
- viability, T/C [18]: 35.2%
- viability, T/C [19]: 91.5%
- viability, T/C [20]: 75.9%
- viability, T/C [21]: 53.2%
- viability, T/C [22]: 45.1%
- viability, T/C [23]: 45.2%
- viability, T/C [24]: 43.3%
- viability, T/C [25]: 83.4%
- viability, T/C [26]: 62.3%
- viability, T/C [27]: 52.6%
- viability, T/C [28]: 42.3%
- viability, T/C [29]: 42.2%
- viability, T/C [30]: 42.9%
- viability, T/C [31]: 72.3%
- viability, T/C [32]: 67.6%
- viability, T/C [33]: 55.4%
- viability, T/C [34]: 39.9%
- viability, T/C [35]: 43%
- viability, T/C [36]: 41.2%

Compound: C#Cc1c(F)ccc2cc(O)cc(-c3ncc4c(N5CC6CCC(C5)N6)nc(OCC56CCCN5CC(F)C6)nc4c3F)c12 (stereo not drawn) + CN(C)c1ccc(Nc2c3ccc(NC(=O)CCN4CCCC4)cc3nc3cc(NC(=O)CCN4CCCC4)ccc23)cc1
- IC50 (second compound 0.0316 µM): 1130 nM
- IC50 (second compound 0.1 µM): 1250 nM
- IC50 (second compound 0.316 µM): 1190 nM
- IC50 (second compound 1 µM): 1110 nM
- IC50 (second compound 3.16 µM): 919 nM
- IC50 (second compound 10 µM): 1590 nM
- viability, T/C [1]: 97.9%
- viability, T/C [2]: 91.8%
- viability, T/C [3]: 87.2%
- viability, T/C [4]: 50.8%
- viability, T/C [5]: 36.8%
- viability, T/C [6]: 29.4%
- viability, T/C [7]: 102%
- viability, T/C [8]: 83.4%
- viability, T/C [9]: 89.6%
- viability, T/C [10]: 51.1%
- viability, T/C [11]: 39.9%
- viability, T/C [12]: 27.3%
- viability, T/C [13]: 93.2%
- viability, T/C [14]: 85.9%
- viability, T/C [15]: 64.5%
- viability, T/C [16]: 53.5%
- viability, T/C [17]: 39.3%
- viability, T/C [18]: 30.2%
- viability, T/C [19]: 96.4%
- viability, T/C [20]: 83.6%
- viability, T/C [21]: 65.7%
- viability, T/C [22]: 50.1%
- viability, T/C [23]: 42.1%
- viability, T/C [24]: 33.6%
- viability, T/C [25]: 80.5%
- viability, T/C [26]: 96.1%
- viability, T/C [27]: 68.6%
- viability, T/C [28]: 49.5%
- viability, T/C [29]: 40.3%
- viability, T/C [30]: 32.2%
- viability, T/C [31]: 84.6%
- viability, T/C [32]: 85.1%
- viability, T/C [33]: 78.5%
- viability, T/C [34]: 50.8%
- viability, T/C [35]: 45.5%
- viability, T/C [36]: 27.2%

Compound: Cn1ncnc1[C@H]1c2n[nH]c(=O)c3cc(F)cc(c23)N[C@@H]1c1ccc(F)cc1 + Cc1cnc(CNC(=O)c2c(=O)c3ccc(N4CCCN(C)CC4)nc3n3c2sc2ccccc23)cn1
- IC50 (second compound 0.0316 µM): > 316 nM
- IC50 (second compound 0.1 µM): > 316 nM
- IC50 (second compound 0.316 µM): > 316 nM
- IC50 (second compound 1 µM): > 316 nM
- IC50 (second compound 3.16 µM): > 316 nM
- IC50 (second compound 10 µM): > 316 nM
- viability, T/C (second compound 0.0316 µM, first compound 0.000999 µM): 94.9%
- viability, T/C (second compound 0.0316 µM, first compound 0.00316 µM): 85%
- viability, T/C (second compound 0.0316 µM, first compound 0.00999 µM): 93.8%
- viability, T/C [1]: 81.2%
- viability, T/C (second compound 0.0316 µM, first compound 0.0999 µM): 70.9%
- viability, T/C [3]: 69.4%
- viability, T/C (second compound 0.1 µM, first compound 0.000999 µM): 89.1%
- viability, T/C (second compound 0.1 µM, first compound 0.00316 µM): 91.2%
- viability, T/C (second compound 0.1 µM, first compound 0.00999 µM): 81.1%
- viability, T/C [7]: 79.3%
- viability, T/C (second compound 0.1 µM, first compound 0.0999 µM): 78.2%
- viability, T/C [9]: 71.8%
- viability, T/C (second compound 0.316 µM, first compound 0.000999 µM): 91.6%
- viability, T/C (second compound 0.316 µM, first compound 0.00316 µM): 78.6%
- viability, T/C (second compound 0.316 µM, first compound 0.00999 µM): 87.4%
- viability, T/C [13]: 84%
- viability, T/C (second compound 0.316 µM, first compound 0.0999 µM): 73.1%
- viability, T/C [15]: 83.9%
- viability, T/C (second compound 1 µM, first compound 0.000999 µM): 75.8%
- viability, T/C (second compound 1 µM, first compound 0.00316 µM): 77.4%
- viability, T/C (second compound 1 µM, first compound 0.00999 µM): 80.7%
- viability, T/C [19]: 80.5%
- viability, T/C (second compound 1 µM, first compound 0.0999 µM): 88.1%
- viability, T/C [21]: 74.9%
- viability, T/C (second compound 3.16 µM, first compound 0.000999 µM): 86.3%
- viability, T/C (second compound 3.16 µM, first compound 0.00316 µM): 71.5%
- viability, T/C (second compound 3.16 µM, first compound 0.00999 µM): 82%
- viability, T/C [25]: 70.7%
- viability, T/C (second compound 3.16 µM, first compound 0.0999 µM): 78.4%
- viability, T/C [27]: 71%
- viability, T/C (second compound 10 µM, first compound 0.000999 µM): 75.2%
- viability, T/C (second compound 10 µM, first compound 0.00316 µM): 78.2%
- viability, T/C (second compound 10 µM, first compound 0.00999 µM): 77.3%
- viability, T/C [31]: 77.9%
- viability, T/C (second compound 10 µM, first compound 0.0999 µM): 84%
- viability, T/C [33]: 66.9%

Compound: CC1COCCN1c1cc(-c2ccnn2C)c2ccnc(-c3ccn[nH]3)c2n1 (stereo not drawn) + Cc1cnc(CNC(=O)c2c(=O)c3ccc(N4CCCN(C)CC4)nc3n3c2sc2ccccc23)cn1
- IC50 (second compound 0.0316 µM): > 10000 nM
- IC50 (second compound 0.1 µM): 31.6 nM
- IC50 (second compound 0.316 µM): > 10000 nM
- IC50 (second compound 1 µM): > 10000 nM
- IC50 (second compound 3.16 µM): > 10000 nM
- IC50 (second compound 10 µM): > 10000 nM
- viability, T/C [1]: 75.9%
- viability, T/C [2]: 61.6%
- viability, T/C [3]: 47.4%
- viability, T/C [4]: 38%
- viability, T/C [5]: 55%
- viability, T/C [6]: 81.7%
- viability, T/C [7]: 64.5%
- viability, T/C [8]: 53.1%
- viability, T/C [9]: 48.5%
- viability, T/C [10]: 41.6%
- viability, T/C [11]: 46.5%
- viability, T/C [12]: 89.7%
- viability, T/C [13]: 65.3%
- viability, T/C [14]: 60.9%
- viability, T/C [15]: 50.7%
- viability, T/C [16]: 40.5%
- viability, T/C [17]: 50.9%
- viability, T/C [18]: 69.9%
- viability, T/C [19]: 71.4%
- viability, T/C [20]: 68.7%
- viability, T/C [21]: 53.2%
- viability, T/C [22]: 53.1%
- viability, T/C [23]: 47.5%
- viability, T/C [24]: 67.7%
- viability, T/C [25]: 70.2%
- viability, T/C [26]: 74.8%
- viability, T/C [27]: 61%
- viability, T/C [28]: 59%
- viability, T/C [29]: 46.9%
- viability, T/C [30]: 61.8%
- viability, T/C [31]: 66.3%
- viability, T/C [32]: 66.9%
- viability, T/C [33]: 56%
- viability, T/C [34]: 51.6%
- viability, T/C [35]: 57.6%
- viability, T/C [36]: 53.1%

Reference: PubChem BioAssay AID2060511 (Molecular Pharmacology Branch, DTP, NCI, 2025)
